Laboratory results taken from patent publication US20120316105A1, “Polymyxin Derivates Useful As Antibacterial Agents” (priority 2011, published 2012).
Bridge positions count the residues as written; N and C are the ends. Square brackets hold non-standard residues; d marks the D form. Peptide text beside a SMILES is read from it. * marks the point of attachment. X21 = N#Cc1cccc(-c2cc(C(=O)*)ccn2)c1; X10 = COc1nc(-c2ccccc2)ccc1C(=O)*; X5 = O=C(c1ccnc(-c2cccc(F)c2)c1)*; X11 = Cc1ccccc1-c1cccc(C(=O)*)c1; X12 = O=C(c1cccc(-c2ccccc2F)c1)*; Dab = NCC[C@H](N)C(=O)O; Dap = NC[C@H](N)C(=O)O

How the values were obtained:
[1] = system: PA-1646, polymyxin-resistant clinical isolate of Pseudomonas aeruginosa; format: cell-based; details: PA-1646, polymyxin-resistant clinical isolate of
Method: (§1) Minimum bactericidal concentration (MBC, mg/L), minimum inhibitory concentration (MIC, mg/L), and human renal proximal tubule epithelial cell line cytotoxicity concentration 50% (hRPTEC, TC50, micromolar) for compounds of Formula I are listed in Table 2. The compounds of Formula I were tested as the corresponding trifluoroacetate salt except for Example 1 which was tested as the sulfate salt. For Table 2 below: PMB=polymyxin B as the sulfate salt (Bedford Laboratories, pharmaceutical grade); PMB1=polymyxin B1 as the trifluoroacetate salt; Nona=polymyxin B nonapeptide as the trifluoroacetate salt. PMB1 and Nona were prepared using the solid phase methodology described in the experimental section herein.
(§2) The in vitro antibacterial activity of compounds of Formula I was evaluated by MIC testing according to Clinical and Laboratory Standards Institute (CLSI). See: Clinical and Laboratory Standards Institute. Methods for Dilution Antimicrobial Susceptibility Tests for Bacteria that Grow Aerobically; Approved Standard-Eighth Edition. CLSI document M7-A8 [ISBN 1-56238-689-1]. Clinical and Laboratory Standards Institute, 940 West Valley Road, Suite 1400, Wayne, Pa. 19087-1898 USA, 2006; also Clinical and Laboratory Standards Institute. Performance Standards for Antimicrobial Susceptibility Testing; Twentieth Informational Supplement. CLSI document M100-S20 [ISBN 1-56238-716-2]. Clinical and Laboratory Standards Institute. Methods for Determining Bactericidal Activity of Antimicrobial Agents; Approved Guideline. CLSI document M26-A (ISBN 1-56238-384-1). CLSI, 940 West Valley Road, Suite 1400, Wayne, Pa. 19087-1898 USA, 1999.
PA-1646 is a polymyxin-resistant clinical isolate of Pseudomonas aeruginosa obtained from JMI labs (www.jmilabs.com);

[2] = system: AB-1649, polymyxin-resistant clinical isolate of Acinetobacter baumannii; format: cell-based; details: AB-1649, polymyxin-resistant clinical isolate of
Method: as §1, §2
(§3) The MIC determination is a standard laboratory method for evaluating the antibacterial activity of a compound. The MIC represents the lowest drug concentration that inhibits visible growth of bacteria following overnight incubation. […] Typically, the drug concentration range is broken down into 2-fold increments (e.g. 0.06 mg/L, 0.12 mg/L, 0.25 mg/L, 0.50 mg/L, 1.0 mg/L, etc.) and the various drug concentrations are all individually incubated overnight with approximately the same number of bacteria. The MIC is then determined by visually inspecting the drug effect at each concentration, and identifying the lowest drug concentration that has inhibited bacterial growth as compared to the drug free control. Typically, bacteria continue to grow at drug concentrations lower than the MIC and don't grow at concentrations at and above the MIC.
(§4) The MIC values described in Table 2 below were derived from assays wherein each test compound was evaluated in duplicate. In cases where the duplicate values varied by 0-2-fold, the lower of the two values was reported below. Generally speaking, if the duplicate values varied by more than 2-fold, the assay was considered non-valid and was repeated until the variation between duplicate runs was ≦2-fold. In line with the CLSI guidelines referred to above, both control organisms and reference compounds were utilized in each MIC assay to provide proper quality control. MIC values generated with these control organisms and reference compounds were required to fall within a defined range for the assay to be considered valid and be included herein. Those skilled in the art will recognize that MIC values can and do vary from experiment to experiment. Generally speaking, it should be recognized that MIC values often vary +/−2-fold from experiment to experiment. While a single MIC is reported for each compound and each microorganism, the reader should not conclude that each compound was only tested once. Several of the compounds were subjected to multiple tests. The data reported in Table 2 is reflective of the compounds relative activity and different MICs may have been generated on these occasions in line with the guidelines described above.
(§5) The following bacterial strains were used in these MIC determinations: […]

[3] = system: PA-1646, polymyxin-resistant clinical isolate of Pseudomonas aeruginosa; format: cell-based; details: PA-1646, polymyxin-resistant clinical isolate of; remark: listed apart in the source
Method: as §1, §2, §3, §4, §5

[4] = system: AB-3167, clinical isolate of Acinetobacter baumannii; format: cell-based; details: AB-3167, clinical isolate of
Method: as §1, §2, §3, §4, §5

[5] = system: Pseudomonas aeruginosa strain PA01; format: cell-based; details: strain
Method: as §1, §2, §3, §4, §5

[6] = system: EC-1, mouse virulent strain of Escherichia coli; format: cell-based; details: E. coli EC-1; overnight incubation, lower of duplicate values; trifluoroacetate salt (Example 1 and PMB sulfate)
Method: as §1, §2, §3, §4
The following bacterial strains were used in these MIC determinations:
EC-1 is a mouse virulent strain of Escherichia coli.

[7] = system: AB-1649, polymyxin-resistant clinical isolate of Acinetobacter baumannii; format: cell-based; details: AB-1649, polymyxin-resistant clinical isolate of; remark: listed apart in the source
Method: as §1, §2
AB-1649 is a polymyxin-resistant clinical isolate of Acinetobacter baumannii obtained from JMI labs (www.jmilabs.com);

[8] = Cytotoxicity assay (LDH release), hRPTEC; format: cell-based, human; details: human
Method: as §1
Human Renal Proximal Tubule Epithelial cells (hRPTEC) were obtained from Lonza (Walkersville, Md., USA) and cultured in REGM (Renal Epithelial Cell Basal Medium supplemented with human epithelial growth factor, hydrocortisone, epinephrine, insulin, triiodothyronine, transferrin, gentamycin/amphotericin-B, and fetal bovine serum). The hRPTEC cells were seeded into 96-well plates and incubated at 37° C. in 5% CO2. Following a growth period of 72 hours, cells were treated with compounds at 100, 67, 44, 30, 20 and 13 micromolar for 24 hours at 37° C. in 5% CO2. The cell supernatant was then harvested for determination of LDH (lactate dehydrogenase) production. The Cytotoxicity Detection Kit from Roche was used for the measurement of LDH activity released from damaged cells. The Toxic Concentration 50% (TC50, micromolar) values were determined for each compound and compared to the control compounds (polymyxin B was used as a positive control and polymyxin B nonapepetide was used as negative control).

Compound	PA-1646 MBC [1] [µg/mL]	AB-1649 MIC [2] [µg/mL]	PA-1646 MIC [3] [µg/mL]	AB-3167 MIC [4] [µg/mL]	PA01 MIC [5] [µg/mL]	EC-1 MIC [6] [µg/mL]	AB-1649 MBC [7] [µg/mL]	CC50 at 24 h [8] [µM]
CC(C)C[C@@H]1NC(=O)[C@@H](Cc2ccccc2)NC(=O)[C@H](CCN)NC(=O)[C@@H](NC(=O)[C@H](CN)NC(=O)[C@@H](NC(=O)[C@H](CCN)NC(=O)c2cccc(-c3ccccc3F)c2)[C@@H](C)O)CCNC(=O)[C@H]([C@@H](C)O)NC(=O)[C@H](CCN)NC(=O)[C@H](CCN)NC1=O [Example 9] (X12-[Dab]T[Dap][Dab][Dab][dF]L[Dab][Dab]T; lactam 4-C)	2	1	2	0.25	0.5	0.25	2	24
Cc1ccccc1-c1cccc(C(=O)N[C@@H](CCN)C(=O)N[C@H](C(=O)N[C@@H](CN)C(=O)N[C@H]2CCNC(=O)[C@H]([C@@H](C)O)NC(=O)[C@H](CCN)NC(=O)[C@H](CCN)NC(=O)[C@H](CC(C)C)NC(=O)[C@@H](Cc3ccccc3)NC(=O)[C@H](CCN)NC2=O)[C@@H](C)O)c1 [Example 21] (X11-[Dab]T[Dap][Dab][Dab][dF]L[Dab][Dab]T; lactam 4-C)	2	2	2	0.25	1	0.25	2	15
CC(C)C[C@@H]1NC(=O)[C@@H](Cc2ccccc2)NC(=O)[C@H](CCN)NC(=O)[C@@H](NC(=O)[C@H](CN)NC(=O)[C@@H](NC(=O)[C@H](CCN)NC(=O)c2ccnc(-c3cccc(C#N)c3)c2)[C@@H](C)O)CCNC(=O)[C@H]([C@@H](C)O)NC(=O)[C@H](CCN)NC(=O)[C@H](CCN)NC1=O [Example 15] (X21-[Dab]T[Dap][Dab][Dab][dF]L[Dab][Dab]T; lactam 4-C)	16	2	4	0.25	0.5	0.125	2	43
CC(C)C[C@@H]1NC(=O)[C@@H](Cc2ccccc2)NC(=O)[C@H](CCN)NC(=O)[C@@H](NC(=O)[C@H](CN)NC(=O)[C@@H](NC(=O)[C@H](CCN)NC(=O)c2ccnc(-c3cccc(F)c3)c2)[C@@H](C)O)CCNC(=O)[C@H]([C@@H](C)O)NC(=O)[C@H](CCN)NC(=O)[C@H](CCN)NC1=O [Example 7] (X5-[Dab]T[Dap][Dab][Dab][dF]L[Dab][Dab]T; lactam 4-C)	8	1	2	0.25	0.5	0.125	1	41
COc1nc(-c2ccccc2)ccc1C(=O)N[C@@H](CCN)C(=O)N[C@H](C(=O)N[C@@H](CN)C(=O)N[C@H]1CCNC(=O)[C@H]([C@@H](C)O)NC(=O)[C@H](CCN)NC(=O)[C@H](CCN)NC(=O)[C@H](CC(C)C)NC(=O)[C@@H](Cc2ccccc2)NC(=O)[C@H](CCN)NC1=O)[C@@H](C)O [Example 38] (X10-[Dab]T[Dap][Dab][Dab][dF]L[Dab][Dab]T; lactam 4-C)	1	4	1	0.25	1	0.25	4	16
